According to patent US20160166570A1, “TREATMENT OR PREVENTION OF NON-INFLAMMATORY NEURONAL DAMAGE FROM BRAIN TRAUMA AND STROKES USING MENTHOL, LINALOOL AND/OR ICILIN” (NESTEC S.A., priority 2013, published 2016):

Legend:
[1] = system: Lateral Amygdala glutamatergic neuron; test: whole cell, current clamp recordings, square pulse at high depolarization, mouse brain slice; format: cell-based; settings: for action potentials at higher stimulation levels / amount of current required to trigger an action potential / threshold to trigger an action potential: as summarised from the experimental results; for amount of current required to trigger an action potential / threshold to trigger an action potential: neocortex; for inactivation of the sodium fast channels / further neuronal firing relative to control: square pulse of 2.5s at high depolarization of membrane potential (approximately −30 mV), FIG. 2
Description: (§1) A mouse brain slice was used to study the damage from Menthol, Linalool and Icilin. The amygdaloid complex is located within the medial temporal lobe in neocortex and amygdala. The lateral and basolateral nuclei of the amygdaloid complex receive sensory information from cortical and thalamic structures, process the information, and then transmit the information, either directly or through the basal nucleus, to the central nucleus. For experimental analysis of neuronal activity, synaptic responses from the basolateral complex can be evoked electrically using electrodes, and the action potentials can be measured. […] A square pulse of 2.5s was applied at high depolarization of membrane potential (approximately −30 mV).

[2] = system: Lateral Amygdala glutamatergic neuron; test: whole cell, current clamp recordings with increasing concentration of gabazine (spontaneous action potential bursts), mouse brain slice; format: cell-based; settings: Menthol 250 μM extracellularly 10 minutes previous to and during increasing concentrations of gabazine; recordings of 5 min, washout 10 min; FIG. 5 vs FIG. 3
Description: as §1, with “As shown, neurons spontaneously present action” for “A square pulse of 2.5s was applied at high depolarization of membrane”, “bursts due to massive presynaptic discharges.” for “(approximately −30 mV).”

Row | Compound | action potentials at higher stimulation levels [1] | amount of current required to trigger an action potential [1] | threshold to trigger an action potential [1] | inactivation of the sodium fast channels / further neuronal firing relative to control [1] | spontaneous action potential bursts under gabazine [2]
1 | O=C1NC(c2cccc([N+](=O)[O-])c2)=CCN1c1ccccc1O [Icilin] | abort action potentials at higher stimulation levels | increase the amount of current required to trigger an action potential | increase the threshold to trigger an action potential | inactivation of the sodium fast channels happens sooner relative to control | 
2 | C=CC(C)(O)CCC=C(C)C (stereo not shown) [Linalool] | abort action potentials at higher stimulation levels | increase the amount of current required to trigger an action potential | increase the threshold to trigger an action potential | inactivation of the sodium fast channels happens sooner relative to control | 
3 | CC1CCC(C(C)C)C(O)C1 (stereo not shown) [Menthol] | abort action potentials at higher stimulation levels | increase the amount of current required to trigger an action potential | increase the threshold to trigger an action potential | inactivation of the sodium fast channels happens sooner relative to control | complete absence or a strongly decreased presence of spontaneous bursts
